Tested on: A/England/195/2009 (H1N1), M2/N31
Assay type: cell-based
Conditions: 100 μM

`NC1C2CC3CC(C2)CC1C3` (stereo not shown) [Compound 3] was tested, and the “% block after 30 min” value was 16 (100 μM; 1) %.

Source: publication PMC4127532 (Journal of Medicinal Chemistry, 2014)
